Experimental data reported in ChEMBL document CHEMBL4411274, “Recent advances of tetrazole derivatives as potential anti-tubercular and anti-malarial agents” (Eur J Med Chem, 2019).
In brackets after ≈: the same amount, converted by molar mass.

Assays:
[1] = test system: Mycobacterium tuberculosis; assay: Antibacterial activity against Mycobacterium tuberculosis H37Rv; format: functional
[2] = test system: Plasmodium falciparum; assay: Antimalarial activity against chloroquine resistant Plasmodium falciparum FcB1R; format: functional, organism-based
[3] = test system: Mycobacterium tuberculosis; assay: Antibacterial activity against Mycobacterium tuberculosis H37Rv by MABA; format: functional
[4] = test system: Mycobacterium kansasii; assay: Potency index, ratio of isoniazid MIC to compound MIC for Mycobacterium kansasii CNCTC My 235/80; format: functional
[5] = test system: Mycobacterium kansasii; assay: Antibacterial activity against Mycobacterium kansasii CNCTC My 235/80; format: functional
[6] = test system: Mycobacterium avium; assay: Antibacterial activity against Mycobacterium avium CNCTC My 330/88; format: functional
[7] = test system: Mycobacterium avium; assay: Potency index, ratio of isoniazid MIC to compound MIC for Mycobacterium avium CNCTC My 330/88; format: functional
[8] = test system: Mycobacterium tuberculosis; assay: Antibacterial activity against Mycobacterium tuberculosis CNCTC My 331/88; format: functional
[9] = test system: Mycobacterium kansasii; assay: Antibacterial activity against Mycobacterium kansasii isolate 6509/96; format: functional
[10] = test system: Mycobacterium tuberculosis; assay: Antibacterial activity against Mycobacterium tuberculosis H37Rv after 5 days; format: functional; conditions: 120 h
[11] = test system: Plasmodium falciparum; assay: Antimalarial activity against ring-stage chloroquine-susceptible Plasmodium falciparum 3D7 preincubated for 6 hrs followed by compound wash and measured after 66 hrs by Giemsa-staining based light microscopic analysis; format: functional, organism-based
[12] = test system: Plasmodium falciparum; assay: Antimalarial activity against ring-stage multidrug-resistant Plasmodium falciparum Dd2 preincubated for 6 hrs followed by compound wash and measured after 66 hrs by Giemsa-staining based light microscopic analysis; format: functional, organism-based
[13] = test system: Mycobacterium tuberculosis; assay: Antibacterial activity against Mycobacterium tuberculosis H37Rv by resazurin dye-based assay; format: functional

With `c1cnc(-c2nn3nnnc3o2)cn1` the MIC [1] was 50 µg/mL (≈ 264 µM).
`CC1=C(CCc2nnnn2CCCC#N)C(=O)c2ccccc2C1=O` showed an IC50 [2] of 900 to 1400 nM.
With `Cc1ccc2c(c1)cc(C1C3=C(CC(C)(C)CC3=O)N(c3ccc(F)cc3)C3=C1C(=O)CC(C)(C)C3)c1nnnn12` the MIC [1] was 50 µg/mL (≈ 91 µM).
With `CN[C@@H]1[C@H](O[C@H]2[C@H](O[C@H]3[C@H](O)[C@@H](O)[C@H](N=C(N)N)[C@@H](O)[C@@H]3N=C(N)N)O[C@@H](C)[C@]2(O)C=O)O[C@@H](CO)[C@H](O)[C@H]1O` [STREPTOMYCIN] the MIC [1] was 4 µg/mL (≈ 6.88 µM).
Compound `CC[C@@H](CO)NCCN[C@@H](CC)CO` [ETHAMBUTOL] has an MIC [3] of 1.56 µg/mL (≈ 7.64 µM) and an MIC [1] of 2 µg/mL (≈ 9.79 µM).
Work on `Cc1ccc(-n2c(-c3cc4cc(Cl)ccc4n4nnnc34)nc(-c3ccccc3)c2-c2ccccc2)cc1` yielded an MIC [1] of 25 µg/mL (≈ 48.7 µM).
Compound `Clc1ccc(-n2nnnc2SCc2ccccc2)cc1Cl` has a Ratio [4] greater than 4, an MIC [5] of 8 to 250 µg/mL (≈ 23.7 to 741 µM) and an MIC [6] of 8 to 250 µg/mL (≈ 23.7 to 741 µM). It also gave a Ratio [7] greater than 4, an MIC [8] of 8 to 62.5 µg/mL (≈ 23.7 to 185 µM) and an MIC [9] of 8 to 62.5 µg/mL (≈ 23.7 to 185 µM).
For `Cn1nnnc1SC1=CS(=O)(=O)c2ccccc21`, the MIC [10] was 2.6 µM (≈ 0.729 µg/mL).
For `C[C@H]1[C@@H](O)O[C@@H]2O[C@@]3(C)CC[C@H]4[C@H](C)CC[C@@H]1[C@@]24OO3` [ARTENIMOL], the IC50 [11] was 4.7 nM and the IC50 [12] was 4.2 nM.
`CO[C@H]1/C=C/O[C@@]2(C)Oc3c(C)c(O)c4c(O)c(c(/C=N/N5CCN(C)CC5)c(O)c4c3C2=O)NC(=O)/C(C)=C\C=C\[C@H](C)[C@H](O)[C@@H](C)[C@@H](O)[C@@H](C)[C@H](OC(C)=O)[C@@H]1C` [RIFAMPIN] gave an MIC [13] of 0.006 µg/mL (≈ 0.00729 µM) and an MIC [1] of 0.25 to 40 µg/mL (≈ 0.304 to 48.6 µM).
For `CC1=C(CCc2nnnn2CCCCC#N)C(=O)c2ccccc2C1=O`, the IC50 [2] was 900 to 1400 nM.
With `NNC(=O)c1ccncc1` [ISONIAZID] the MIC [13] was 0.063 µg/mL (≈ 0.459 µM), the MIC [1] was 0.2 µg/mL (≈ 1.46 µM) and the MIC [8] was 0.5 µg/mL (≈ 3.65 µM). For the same compound, the MIC [9] was 4 µg/mL (≈ 29.2 µM).
In the case of `CC1=C(CCc2nnnn2CCCCCC#N)C(=O)c2ccccc2C1=O`, the IC50 [2] is reported as 900 to 1400 nM.
